Assay results taken from ChEMBL document CHEMBL3098066, “Minimum active structure of insulin-like peptide 5” (J Med Chem, 2013).
The source made the active and inactive calls. Where a SMILES comes first, the peptide text is derived from it. Bridges are numbered along the chain shown (N, C = ends). The star is where a group is joined. Acm = CC(=O)NC*; tBu = CC(C)(C)*; Cam = NC(=O)C*

Key:
[1] = biological target: Relaxin-3 receptor 2 (Homo sapiens) (UniProt Q8TDU9); test: Agonist activity at human RXFP4 transfected in CHO-K1 cells at 0.01 nM to 1000 nM by beta-galactosidase reporter gene assay relative to forskolin; type: functional, cell-based
Relaxin-3 receptor 2 (Homo sapiens), sequence (Q8TDU9 whole entry): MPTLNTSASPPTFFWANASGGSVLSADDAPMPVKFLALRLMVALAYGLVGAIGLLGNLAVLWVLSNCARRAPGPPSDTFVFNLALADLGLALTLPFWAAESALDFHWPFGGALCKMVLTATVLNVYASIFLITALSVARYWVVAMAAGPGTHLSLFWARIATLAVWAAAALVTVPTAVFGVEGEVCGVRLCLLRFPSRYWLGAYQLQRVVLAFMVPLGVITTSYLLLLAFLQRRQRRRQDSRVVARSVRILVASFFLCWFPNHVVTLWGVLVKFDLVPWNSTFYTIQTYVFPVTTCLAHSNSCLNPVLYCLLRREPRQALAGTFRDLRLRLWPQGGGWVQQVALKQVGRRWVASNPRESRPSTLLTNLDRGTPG

[2] = biological target: Relaxin-3 receptor 2 (Homo sapiens) (UniProt Q8TDU9); test: Displacement of Eu(A)-mINSL5 acid from human RXFP4 transfected in CHO-K1 cells by fluorescence-based assay; type: cell-based
[3] = biological target: Relaxin-3 receptor 2 (Homo sapiens) (UniProt Q8TDU9); test: Agonist activity at human RXFP4 transfected in CHO-K1 cells assessed as inhibition of forskolin-induced cAMP production by beta-galactosidase reporter gene assay; type: functional, cell-based
[4] = biological target: Relaxin-3 receptor 2 (Homo sapiens) (UniProt Q8TDU9); test: Agonist activity at human RXFP4 transfected in CHO-K1 cells at 10 uM by beta-galactosidase reporter gene assay relative to forskolin; type: functional, cell-based
[5] = biological target: Relaxin-3 receptor 2 (Homo sapiens) (UniProt Q8TDU9); test: Agonist activity at human RXFP4 transfected in CHO-K1 cells up to 10 uM by beta-galactosidase reporter gene assay relative to forskolin; type: functional, cell-based

CSCC[C@H](NC(=O)[C@H](CO)NC(=O)[C@H](CSCC(N)=O)NC(=O)CNC(=O)[C@H](CCC(=O)O)NC(=O)[C@H](CCCNC(=N)N)NC(=O)[C@H](CSC(C)(C)C)NC(=O)[C@H](CSCC(N)=O)NC(=O)[C@H](CC(C)C)NC(=O)[C@H](C)NC(=O)[C@H](CCC(N)=O)NC(=O)[C@H](CC(C)C)NC(=O)[C@H](CC(=O)O)NC(=O)[C@@H](N)CCCNC(=N)N)C(=O)N[C@@H](CCCCN)C(=O)N[C@@H](CCC(=O)O)C(=O)N[C@@H](CC(C)C)C(=O)N[C@@H](CO)C(=O)N[C@H](C(=O)N[C@@H](CC(C)C)C(=O)N[C@@H](CSCNC(C)=O)C(=O)O)[C@@H](C)O (H-RDLQALC(Cam)C(tBu)REGC(Cam)SMKELSTLC(Acm)-OH)
inactive: Emax [1] | pIC50 [2] | pEC50 [3]

CSCC[C@H](NC(=O)[C@H](CO)NC(=O)[C@@H]1CSSC[C@H](NC(=O)[C@H](CC(C)C)NC(=O)[C@H](C)NC(=O)[C@H](CCC(N)=O)NC(=O)[C@H](CC(C)C)NC(=O)[C@H](CC(=O)O)NC(=O)[C@@H](N)CCCNC(=N)N)C(=O)N[C@@H](CSC(C)(C)C)C(=O)N[C@@H](CCCNC(=N)N)C(=O)N[C@@H](CCC(=O)O)C(=O)NCC(=O)N1)C(=O)N[C@@H](CCCCN)C(=O)N[C@@H](CCC(=O)O)C(=O)N[C@@H](CC(C)C)C(=O)N[C@@H](CO)C(=O)N[C@H](C(=O)N[C@@H](CC(C)C)C(=O)N[C@@H](CSCNC(C)=O)C(=O)O)[C@@H](C)O (H-RDLQALCC(tBu)REGCSMKELSTLC(Acm)-OH; disulfide 7-12)
inactive: Emax [1] | pIC50 [2] | pEC50 [3]

H-SRQTVKLAGLDYVRTVIYIAASSRW-OH
inactive: pIC50 [2] | pEC50 [3] | Emax [4]

H-SRQTVKLAGLDYVRTVIYIAR-OH
inactive: pIC50 [2] | Emax [5] | pEC50 [3]
